Read-outs that look alike come from different tables or passages of the source.
What was measured:
ABL1 = biological target: T1, ABL1 (Homo sapiens, UniProt P00519); assay: ADP-Glo kinase assay; format: biochemical
T1 construct: commercial enzyme of Promega kinase assay

ERK2 (MAPK1) = biological target: T2, ERK2 (MAPK1) (Homo sapiens, UniProt P28482); assay: ADP-Glo kinase assay; format: biochemical; details: read-out: IC50 value (μM) ± SD / ERK2
T2 construct: commercial enzyme of Promega kinase assay
T2 sequence (P28482 2-360): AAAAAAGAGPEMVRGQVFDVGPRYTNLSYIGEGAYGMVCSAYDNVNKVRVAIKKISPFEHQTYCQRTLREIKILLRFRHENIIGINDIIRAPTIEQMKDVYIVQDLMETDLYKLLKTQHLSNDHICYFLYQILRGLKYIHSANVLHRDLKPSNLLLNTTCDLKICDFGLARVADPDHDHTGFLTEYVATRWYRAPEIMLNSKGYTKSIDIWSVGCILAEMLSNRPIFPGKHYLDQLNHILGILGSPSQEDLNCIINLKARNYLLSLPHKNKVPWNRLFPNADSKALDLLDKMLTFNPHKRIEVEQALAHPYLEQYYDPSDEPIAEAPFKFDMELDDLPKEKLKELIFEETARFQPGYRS
Description: ADP-Glo kinase assay on ERK2 (MAPK1)

MAPK14 (MAPK14/p38α) = biological target: T3, MAPK14 (MAPK14/p38α) (Homo sapiens, UniProt Q16539); assay: ADP-Glo kinase assay; format: biochemical; details: read-out: IC50 value (μM) ± SD / MAPK14
T3 construct: commercial enzyme of Promega kinase assay
T3 sequence (Q16539 2-360): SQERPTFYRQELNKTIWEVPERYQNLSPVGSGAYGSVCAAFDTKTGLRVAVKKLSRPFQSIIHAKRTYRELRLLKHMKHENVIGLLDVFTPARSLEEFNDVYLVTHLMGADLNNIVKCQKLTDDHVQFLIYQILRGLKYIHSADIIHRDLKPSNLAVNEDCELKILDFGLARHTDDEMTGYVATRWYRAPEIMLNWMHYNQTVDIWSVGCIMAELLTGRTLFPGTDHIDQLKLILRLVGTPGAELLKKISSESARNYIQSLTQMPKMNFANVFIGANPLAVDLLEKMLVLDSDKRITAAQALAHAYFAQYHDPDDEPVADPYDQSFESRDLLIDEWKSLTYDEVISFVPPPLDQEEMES

[1] = biological target: T4, MAPK14 (wild-type, His-tagged, pET28a) (Homo sapiens, UniProt Q16539); assay: fluorescence thermal shift assay; format: binding; details: read-out: dTm
T4 construct: wild type, pET28a vector, His tag conserved for ITC and TSA
T4 sequence (Q16539 whole entry): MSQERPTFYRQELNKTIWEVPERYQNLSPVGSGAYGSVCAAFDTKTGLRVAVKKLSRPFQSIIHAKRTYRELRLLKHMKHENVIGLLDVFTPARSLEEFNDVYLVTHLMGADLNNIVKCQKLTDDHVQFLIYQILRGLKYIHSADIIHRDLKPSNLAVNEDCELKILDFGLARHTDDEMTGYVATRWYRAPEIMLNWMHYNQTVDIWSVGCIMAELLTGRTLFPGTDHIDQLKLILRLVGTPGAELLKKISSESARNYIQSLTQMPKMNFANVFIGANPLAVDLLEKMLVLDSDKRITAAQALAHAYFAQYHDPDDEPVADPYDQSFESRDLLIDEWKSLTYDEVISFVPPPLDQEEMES

[2] = biological target: T4, MAPK14 (wild-type, His-tagged, pET28a); assay: isothermal titration calorimetry; format: binding
[3] = read-out: IC50 value (μM) ± SD / ABL1

T1 sequence (P00519 whole entry): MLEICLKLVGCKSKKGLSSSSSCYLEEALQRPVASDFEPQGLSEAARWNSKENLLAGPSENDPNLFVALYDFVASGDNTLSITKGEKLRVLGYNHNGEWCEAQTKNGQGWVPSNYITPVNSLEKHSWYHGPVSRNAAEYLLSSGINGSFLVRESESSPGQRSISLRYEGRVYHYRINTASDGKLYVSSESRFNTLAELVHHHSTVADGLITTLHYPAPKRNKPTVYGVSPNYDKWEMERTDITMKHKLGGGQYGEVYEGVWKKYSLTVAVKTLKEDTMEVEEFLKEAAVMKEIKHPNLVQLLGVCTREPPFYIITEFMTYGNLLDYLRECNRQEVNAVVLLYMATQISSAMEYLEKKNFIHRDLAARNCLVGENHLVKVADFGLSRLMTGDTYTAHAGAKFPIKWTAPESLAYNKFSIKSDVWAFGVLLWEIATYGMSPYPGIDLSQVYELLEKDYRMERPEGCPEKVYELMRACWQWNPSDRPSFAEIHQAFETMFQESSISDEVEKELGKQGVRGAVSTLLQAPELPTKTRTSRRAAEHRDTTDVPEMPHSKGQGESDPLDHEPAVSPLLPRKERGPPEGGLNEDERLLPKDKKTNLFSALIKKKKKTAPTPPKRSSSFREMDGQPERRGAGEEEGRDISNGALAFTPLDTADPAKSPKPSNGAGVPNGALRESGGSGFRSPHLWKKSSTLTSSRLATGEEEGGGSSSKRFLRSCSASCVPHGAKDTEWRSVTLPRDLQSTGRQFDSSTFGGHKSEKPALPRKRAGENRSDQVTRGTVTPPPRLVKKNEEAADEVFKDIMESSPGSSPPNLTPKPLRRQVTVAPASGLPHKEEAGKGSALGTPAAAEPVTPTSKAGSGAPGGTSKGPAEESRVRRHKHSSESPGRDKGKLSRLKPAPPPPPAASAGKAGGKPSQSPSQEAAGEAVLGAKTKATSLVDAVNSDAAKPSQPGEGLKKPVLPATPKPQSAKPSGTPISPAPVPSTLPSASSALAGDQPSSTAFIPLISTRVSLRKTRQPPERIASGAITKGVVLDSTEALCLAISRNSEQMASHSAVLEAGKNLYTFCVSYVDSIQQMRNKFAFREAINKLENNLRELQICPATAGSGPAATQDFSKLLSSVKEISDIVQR

SMILES	IC50 (ABL1; [3]) [µM]	IC50 (ERK2 (MAPK1)) [µM]	ΔTm at 50 µM [1] [°C]	Kd [2] [µM]	IC50 (MAPK14 (MAPK14/p38α)) [µM]	IC50 (ABL1; read-out: IC50) [µM]
CCCSc1ccc2nc(NC(=O)OC)[nH]c2c1 [Albendazole]	0.9 ± 0.6	3.4 ± 1.5	–	–	> 50	–
COC(=O)Nc1nc2cc(C(=O)c3ccc(F)cc3)ccc2[nH]1 [Flubendazole]	0.11 ± 0.05	15.9 ± 8	–	–	5.5 ± 2.7	–
COC(=O)Nc1nc2ccc(C(=O)c3cccs3)cc2[nH]1 [Nocodazole]	–	26.9 ± 16.2	–	–	2.8 ± 5.6	0.078 ± 0.034

Second part, led by results:

IC50 (ABL1; [3]) [µM]	IC50 (ERK2 (MAPK1)) [µM]	ΔTm at 50 µM [1] [°C]	Kd [2] [µM]	SMILES	IC50 (MAPK14 (MAPK14/p38α)) [µM]	IC50 (ABL1; read-out: IC50) [µM]
0.19 ± 0.07	> 50	–	–	COC(=O)Nc1nc2ccc(Sc3ccccc3)cc2[nH]1 [Fenbendazole]	10.7 ± 4.9	–
0.35 ± 0.12	24.7 ± 10.4	3.7	1.27 ± 0.02	COC(=O)Nc1nc2ccc(C(=O)c3ccccc3)cc2[nH]1 [Mebendazole]	–	–
